This is an account of results in ChEMBL document CHEMBL2057087, “Design, synthesis and vasodilative activity of tanshinone IIA derivatives” (2012).

For one assay, the system named is Aorta. The assay is described as follows: Vasodilatory activity in Wistar rat thoracic aorta rings assessed as inhibition of norepinephrine hydrochloride-induced contraction. The assay is classed as functional, tissue-based.
Turning to `Cc1coc2c1C(=O)C(=O)c1c-2ccc2c1C(OC(=O)c1ccccc1O)CCC2(C)C` (stereo not given), the inhibition entry is “Dose-dependent effect”.

For the molecule `COc1ccc(C(=O)OC2CCC(C)(C)c3ccc4c(c32)C(=O)C(=O)c2c(C)coc2-4)cc1` (stereo not given), the inhibition entry was “Dose-dependent effect”.

As for `Cc1coc2c1C(=O)C(=O)c1c-2ccc2c1C(OC(=O)c1ccccc1F)CCC2(C)C` (stereo not given), the inhibition entry is “Dose-dependent effect”.

For `COc1cccc(CC(=O)OC2CCC(C)(C)c3ccc4c(c32)C(=O)C(=O)c2c(C)coc2-4)c1` (stereo not given), the inhibition result is “Dose-dependent effect”.

The subject of a further assay is Aorta. The assay is described as follows: Vasodilatory activity in Wistar rat thoracic aorta rings assessed as inhibition of norepinephrine hydrochloride-induced contraction at 1 X 10 '-4 M. The assay is classed as functional.
On to `COc1ccccc1CC(=O)OC1CCC(C)(C)c2ccc3c(c21)C(=O)C(=O)c1c(C)coc1-3` (stereo not given), for which the inhibition at 100 µM amounted to 12.8%.

Consider `Cc1coc2c1C(=O)C(=O)c1c-2ccc2c1CCCC2(C)C` [TANSHINONE IIA], for which the inhibition at 100 µM was 1.86%.

Turning to `Cc1coc2c1C(=O)C(=O)c1c-2ccc2c1C(OC(=O)Cc1cccc(F)c1)CCC2(C)C` (stereo not given), the inhibition at 100 µM is -2.78%.

With `Cc1coc2c1C(=O)C(=O)c1c-2ccc2c1C(OC(=O)Cc1ccccc1F)CCC2(C)C` (stereo not given), the inhibition at 100 µM was determined as 1.92%.

Regarding `Cc1coc2c1C(=O)C(=O)c1c-2ccc2c1C(OC(=O)c1cccc(F)c1)CCC2(C)C` (stereo not given), the inhibition at 100 µM is -3.59%.

With `Cc1coc2c1C(=O)C(=O)c1c-2ccc2c1C(OC(=O)Cc1ccccc1)CCC2(C)C` (stereo not given), the inhibition at 100 µM is -17.8%.

For the molecule `Cc1coc2c1C(=O)C(=O)c1c-2ccc2c1C(OC(=O)Cc1ccc(F)cc1)CCC2(C)C` (stereo not given), the inhibition at 100 µM is -13.3%.

Consider `COc1ccc(CC(=O)OC2CCC(C)(C)c3ccc4c(c32)C(=O)C(=O)c2c(C)coc2-4)cc1` (stereo not given), for which the inhibition at 100 µM stood at 20.2%.

Regarding `COc1ccccc1C(=O)OC1CCC(C)(C)c2ccc3c(c21)C(=O)C(=O)c1c(C)coc1-3` (stereo not given), the inhibition at 100 µM was found to be 7.58%.

Take `Cc1coc2c1C(=O)C(=O)c1c-2ccc2c1C(OC(=O)Cc1cccc(O)c1)CCC2(C)C` (stereo not given): the inhibition at 100 µM was -4.92%.

Consider `Cc1coc2c1C(=O)C(=O)c1c-2ccc2c1C(OC(=O)c1ccccc1O)CCC2(C)C` (stereo not given), for which the inhibition at 100 µM is 22.4%.

`Cc1coc2c1C(=O)C(=O)c1c-2ccc2c1C(OC(=O)c1ccc(F)cc1)CCC2(C)C` (stereo not given): the inhibition at 100 µM is -3.3%.

As for `Cc1coc2c1C(=O)C(=O)c1c-2ccc2c1C(OC(=O)c1cccc(O)c1)CCC2(C)C` (stereo not given), the inhibition at 100 µM was 19.1%.

In the case of `Cc1coc2c1C(=O)C(=O)c1c-2ccc2c1C(OC(=O)c1ccccc1)CCC2(C)C` (stereo not given), the inhibition at 100 µM is -9.41%.

Turning to `COc1ccc(C(=O)OC2CCC(C)(C)c3ccc4c(c32)C(=O)C(=O)c2c(C)coc2-4)cc1` (stereo not given), the inhibition at 100 µM stood at 23.5%.

With `Cc1coc2c1C(=O)C(=O)c1c-2ccc2c1C(OC(=O)Cc1ccc(O)cc1)CCC2(C)C` (stereo not given), the inhibition at 100 µM is -1.67%.

On to `Cc1coc2c1C(=O)C(=O)c1c-2ccc2c1C(OC(=O)c1ccc(O)cc1)CCC2(C)C` (stereo not given), for which the inhibition at 100 µM turned out to be 9.39%.

Regarding `Cc1coc2c1C(=O)C(=O)c1c-2ccc2c1C(OC(=O)Cc1ccccc1O)CCC2(C)C` (stereo not given), the inhibition at 100 µM was -0.37%.

As for `Cc1coc2c1C(=O)C(=O)c1c-2ccc2c1C(OC(=O)c1ccccc1F)CCC2(C)C` (stereo not given), the inhibition at 100 µM is 21.8%.

Take `COc1cccc(C(=O)OC2CCC(C)(C)c3ccc4c(c32)C(=O)C(=O)c2c(C)coc2-4)c1` (stereo not given): the inhibition at 100 µM was -0.25%.

As to `COc1cccc(CC(=O)OC2CCC(C)(C)c3ccc4c(c32)C(=O)C(=O)c2c(C)coc2-4)c1` (stereo not given), the inhibition at 100 µM was determined as 29.4%.

A word on the inhibition: it is the drop in the measured response relative to a control, in per cent.
